In publication PMC10060427, “A glucose tolerant β-glucosidase from a newly isolated Neofusicoccum parvum strain F7: production, purification, and characterization” (Scientific Reports, 2023):

Columns and labels:
Assay type in all cases: biochemical, Neofusicoccum parvum
Bgl3 = system: T1, Bgl3; assay: 4-nitrophenol release at […] nm, Lineweaver-Burk plot; conditions: standard assay described as 50 mM sodium acetate pH 5.0, 55 °C; 4-NPG 0-13.28 mM
T1 construct: native extracellular enzyme purified from culture supernatant (ammonium sulphate, HiTrap Q FF, native gel extraction); about 65 kDa; GH3 only inferred by authors

Bgl2 = system: T2, Bgl2; assay: 4-NPG hydrolysis, absorbance at […] nm, glucose […]; conditions: product inhibition; substrate 4-NPG; standard assay described as 50 mM sodium acetate pH 5.0, 55 °C
T2 construct: native extracellular enzyme purified from culture supernatant, extracted from native gel; 230 kDa on native PAGE

Bgl1 = system: T3, Bgl1; assay: 4-NPG hydrolysis, absorbance at […] nm, glucose […]; conditions: product inhibition; substrate 4-NPG; standard assay described as 50 mM sodium acetate pH 5.0, 55 °C
T3 construct: native extracellular enzyme purified from culture supernatant, extracted from native gel; 240 kDa on native PAGE

Question: For `O=[N+]([O-])c1ccc(O[C@@H]2O[C@H](CO)[C@@H](O)[C@H](O)[C@H]2O)cc1` [4-nitrophenyl-β-D-glucopyranoside], which Km (Bgl3) is on record?
Answer: 1180 µM

Question: What does the source list for `OC[C@H]1OC(O)[C@H](O)[C@@H](O)[C@@H]1O` (stereo partly drawn) [glucose]?
Answer: IC50 (Bgl2): 22.6 mM; IC50 (Bgl1): 2.6 mM
